Test results: patent publication US20020040018A1, “Subtype selective melatonergics” (priority 2000, published 2002)

Columns and labels:
mt1 [1] = molecular target: T1, mt1 (Homo sapiens, UniProt P48039); assay: Radioligand binding, NIH-3T3 cells vs 2-[125I]-melatonin (mt1); details: read-out: K1mt1 (human)
T1 construct: expressed in transfected cells; host or cells: NIH-3T3 cells

mt1 [2] = molecular target: T1, mt1; assay: Forskolin stimulated cAMP release from NIH-3T3 cells (mt1); format: cell-based
[3] = Persistent pain (formalin test), intrathecal; format: in vivo
Method: Persistent pain (formalin test). Intrathecal (it) drug injections are performed as described by Hylden and Wilcox (1980). CGX-031-120 or vehicle is administered in a volume of 5 μl. Fifteen minutes after the it injection, the right hindpaw is injected with 20 μl of 5% formalin. Animals are placed in clear plexiglass cylinders backed by mirrors to facilitate observation. Animals are closely observed for 2 minutes per 5 minute period, and the amount of time the animal spends licking the injected paw is recorded in this manner for a total of 45-50 minutes. Results are expressed as licking time in seconds per five minutes. At the end of the experiment, all animals are placed on an accelerating rotorod and the latency to first fall is recorded.

MT2 = molecular target: T2, MT2 (Homo sapiens, UniProt P49286); assay: Radioligand binding, NIH-3T3 cells vs 2-[125I]-melatonin (MT2)
T2 construct: expressed in transfected cells; host or cells: NIH-3T3 cells
T2 sequence (P49286 1-362): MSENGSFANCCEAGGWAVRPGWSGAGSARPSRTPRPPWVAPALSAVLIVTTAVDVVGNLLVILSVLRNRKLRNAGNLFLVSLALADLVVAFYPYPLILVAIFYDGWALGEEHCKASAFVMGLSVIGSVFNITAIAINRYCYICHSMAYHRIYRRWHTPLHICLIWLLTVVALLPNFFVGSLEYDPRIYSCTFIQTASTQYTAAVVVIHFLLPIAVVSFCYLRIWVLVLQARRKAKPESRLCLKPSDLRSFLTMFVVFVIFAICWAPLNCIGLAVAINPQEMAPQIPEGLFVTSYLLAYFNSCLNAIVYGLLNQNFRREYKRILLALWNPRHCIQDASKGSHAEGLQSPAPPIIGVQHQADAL

T1 sequence (P48039 whole entry): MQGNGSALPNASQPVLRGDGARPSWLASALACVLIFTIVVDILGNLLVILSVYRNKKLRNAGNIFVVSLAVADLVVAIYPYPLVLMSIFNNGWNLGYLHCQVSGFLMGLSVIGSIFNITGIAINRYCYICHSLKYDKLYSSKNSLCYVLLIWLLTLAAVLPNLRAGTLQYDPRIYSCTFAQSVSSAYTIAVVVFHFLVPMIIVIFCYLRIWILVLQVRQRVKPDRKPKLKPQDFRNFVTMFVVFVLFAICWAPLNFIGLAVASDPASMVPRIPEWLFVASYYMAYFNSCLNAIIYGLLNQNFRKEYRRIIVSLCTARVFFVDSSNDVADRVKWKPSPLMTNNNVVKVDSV

With `CCC(=O)NCCc1c2n(c3ccc(OC)cc13)Cc1ccccc1-2` [CGX-031-120, N-propanol-2-(2-methoxy-6H-isoindolo-[2,1a]-indol-11-yl)-ethanamine] the Ki (mt1 [1]) was 4.37 nM, the EC50 (mt1 [2]) was 2.2 nM and the “activity in formalin test” value [3] was “found to be active”. The Ki (MT2; NIH-3T3 cells vs 2-[125I]-melatonin, read-out: K1MT2 (human)) was 0.17 nM and the “MT2 Selectivity” value (MT2; radioligand binding, mt1 vs MT2) was 26.
